Reference: patent US20240366606A1, “MRGPRX2 ANTAGONISTS AND USES THEREOF” (The Regents of the University of California, priority 2021, published 2024)
“Also recorded” adds a separate entry of the source. Where two headings read alike, the source gives them in different places.

Columns and labels:
MRGPRX2 [1] = assay: BRET2 Gq activation, MRGPRX2 pocket mutants, HEK293T cells; format: cell-based, human
Experimental: (§1) Bioluminescence resonance energy transfer assay 2 (BRET2). To measure the receptor mediated G protein activation, HEK293T cells were plating either in six-well dishes containing 350-400 k cells per well, or 10-cm dishes at approximately 2 million per dish 20-24 h prior to transfection. The cells were then transfected with a 1:1:1:1 ratio of the receptor:GurLuc8:Gβ:GγGFP DNA. Transit 2020 (Mirus biosciences) was used to complex the DNA at a ratio of 3 μL Transit/μg DNA, in OptiMEM (GIBCO) at a concentration of 10 ng DNA per μL OptiMEM. After 24 h, the cells were plated in poly-L-lysine coated 96-well white clear bottom cell culture plates in plating media (DMEM+1% dialyzed FBS) at a density of 40-50,000 cells in 200 μl per well and incubated overnight. The next day, the media was carefully aspirated and cells were washed once with 60 μl of drug buffer (1×HBSS, 20 mM HEPES, 0.1% (w/v) BSA, pH 7.4), then 60 μl drug buffer containing coelenterazine 400a (nanolight technology) at 5 μM final concentration was added to each well and incubate for 5 min. Cells were then treated with 30 μl of 3× designated drug for an additional 5 minutes. After drug incubation, plates were read in an LB940 Mithras plate reader (Berthold Technologies) with a 395 nm (RLuc8-coelenterazine 400a) and 510 nm (GFP2) emission filters, at 1 s integration times. Each plate was read four times, and measurements from the fourth read were used in all analyses. BRET ratio was computed as the ratio of the GFP2 emission to rLuc8 emission. Data were normalized to % WT stimulation with indicated reference agonist and analyzed using nonlinear regression “log(agonist) vs. response” in GraphPad Prism 9.0. Log(agonist) vs normalized response—variable slope was used for (R)-ZINC-3573 pocket mutations (D184 Å, E164 Å, W243 Å, F244 Å, L247 Å, and W248 Å).

[2] = tested on: a number of GPCRs, ion channels and transporters; assay: Off-target profiling / inhibition screen (NIMH PDSP binding assays); settings: screened at 10 μM
Experimental: Inhibition screen. Binding assays were performed by the NIMH Psychoactive Drug Screening program as described previously (PMID: 23235874). Detailed binding assay protocols are available at: https://pdspdb.unc.edu/pdspWeb/content/UNC-CH %20Protocol %20Book.pdf.

MRGPRX2 [3] = target: T1, MRGPRX2 (Homo sapiens (Human), UniProt Q96LB1); assay: FLIPR Ca2+ assay, antagonist mode, tetracycline-inducible MRGPRX2 stable cell line; format: cell-based; settings: for inhibition of substance P stimulated MRGPRX2 activation: EC80 substance P concentration; for antagonist activity for MRGPRX2: in words, SAR around '1592
Experimental: FLIPR Ca2+ assay. […] NK1 stably expressing cell were maintained in DMEM containing 10% (v/v) FBS, 100 units ml^−1 penicillin G and 100 μg ml^−1 streptomycin. On the day of assay, cells were plated into Poly-L-Lysine (PLL) coated 384-well black clear bottom cell culture plates with DMEM buffer, which is composed of 1% (v/v) dialyzed FBS, 100 units ml^−1 penicillin G, 100 μg ml^−1 streptomycin with 1 μg ml^−1 tetracycline at density of 20,000 cells in 40 μl per well for overnight. For NK1 stable cells, the same media used for MRGPRX2 or MRGPRX4 cells except the tetracycline were used. Medium was removed and cells were incubated with 20 μl of calcium dye (FLIPR Calcium 4 Assay Kit; Molecular Devices) diluted in assay buffer (1×HBSS, 2.5 mM probenecid, and 20 mM HEPES, pH 7.4) for 1 hour at 37° C. and 20 min at room temperature in the dark. To measure agonist activity of receptors, drug plates were prepared with increasing concentrations of test compound at 3 times the desired final concentration using drug buffer (1×HBSS, 20 mM HEPES, 0.1% (w/v) BSA, pH 7.4). Once loaded in FLIPR (Molecular Devices), basal fluorescence was measured for 10 s, then 10 μl of test compounds were added followed by continued fluorescence measurement for an additional 120 s. When measuring antagonist activity of receptors, drug plates were prepared with increasing concentrations of test compound at 4 times the desired final concentration, added as above for their potential effects on basal levels for 120 s first, followed by a 15 min incubation before addition of 10 μl of 4× of reference agonist at final concentration corresponding to the EC80. Data were normalized to % reference compound stimulation and analyzed using nonlinear regression “log(agonist) vs. response” in GraphPad Prism 9.0.

NK1R = NK1R (Homo sapiens (Human), UniProt P25103); assay: FLIPR Ca2+ assay, antagonist mode, NK1R stable cell line; format: cell-based
Experimental: (§2) FLIPR Ca2+ assay. Tetracycline inducible MRGPRX2 or MRGPRX4 stable cells [Flp-In™ T-REx™-293 cell which is derived from HEK 293 cells (ATCC, CRL 1573)] were maintained in DMEM containing 10% (v/v) FBS, 100 units ml^−1 penicillin G, 100 μg ml^−1 streptomycin, 100 μg ml^−1 hygromycin B, and 15 μg ml^−1 blasticidin ^16. NK1 stably expressing cell were maintained in DMEM containing 10% (v/v) FBS, 100 units ml^−1 penicillin G and 100 μg ml^−1 streptomycin. On the day of assay, cells were plated into Poly-L-Lysine (PLL) coated 384-well black clear bottom cell culture plates with DMEM buffer, which is composed of 1% (v/v) dialyzed FBS, 100 units ml^−1 penicillin G, 100 μg ml^−1 streptomycin with 1 μg ml^−1 tetracycline at density of 20,000 cells in 40 μl per well for overnight. For NK1 stable cells, the same media used for MRGPRX2 or MRGPRX4 cells except the tetracycline were used. […] Once loaded in FLIPR (Molecular Devices), basal fluorescence was measured for 10 s, then 10 μl of test compounds were added followed by continued fluorescence measurement for an additional 120 s. […] Data were normalized to % reference compound stimulation and analyzed using nonlinear regression “log(agonist) vs. response” in GraphPad Prism 9.0.

MRGPRX2 [4] = target: T1, MRGPRX2; assay: BRET1 recruitment assay (inverse agonist activity, miniGq recruitment) in HEK293T cells; format: cell-based
Experimental: Bioluminescence resonance energy transfer assay 1 (BRET1). To test the inverse agonist activities of MRGPRX2 compounds, BRET1 recruitment assay was performed. Human MRGPRX2 containing C-terminal Renilla luciferase (RLuc8), and Venus-tagged miniGq were co-transfected at a ratio of 1:5 using HEK293T cells. After 20-24 hours, transfected cells were plated into poly-L-lysine coated 96-well clear bottom white plate in plating media (DMEM+1% (v/v) dialyzed FBS). The next day, media was decanted and cells were washed once with 60 μl drug buffer (1×HBSS, 20 mM HEPES, 0.1% (w/v) BSA, pH 7.4), then 60 μl drug buffer containing 5 μM coelenterazine h (Promega) was added to each well and incubate for 5 min. Cells were then treated with 30 μl of 3× designated drug for an additional 5 minutes. After drug incubation, plates were read in an LB940 Mithras plate reader (Berthold Technologies) for both luminescence at 485 nm and fluorescent eYFP emission at 530 nm for 1 s per well. The ratio of eYFP/RLuc was calculated per well and the net BRET ratio was calculated and fitted using “log(inhibitor) vs. response” in GraphPad Prism 9.0 to represent the inhibitory effect of MRGPX2 compound.

MRGPRX4 [5] = target: T2, MRGPRX4 (Homo sapiens (Human), UniProt Q96LA9); assay: FLIPR Ca2+ assay, antagonist mode, tetracycline-inducible MRGPRX4 stable cell line; format: cell-based
Experimental: as §2

LAD2 human mast cells = assay: Human mast cell activation (beta-hexosaminidase release) assay; format: cell-based; settings: (R)-ZINC-3573 stimulation; listed as C9
Experimental: Human Mast Cell activation (Beta-hexosaminidase release) Assay. Mast cell activation was assessed by measuring extracellular release of Beta-hexosaminidase, a major component of mast cell granules. To assay human mast cell Beta-hexosaminidase release, LAD2 human mast cells were seeded at a concentration of 2*10^5 cells per well in 96-well plates in Tyrode's buffer (100 μl). 15 minutes prior to activation, varying concentrations of either C7 or C9 were added to the wells to reach a total volume of 190 μl. For activation, (R)-ZINC-3573 (10 μl, 2 μM) was added to each well for 30 minutes at 37° C. Separate wells received either buffer (buffer control), 0.1% Triton X-100 (total beta-hexosaminidase control), or (R)-ZINC-3573 alone (positive control) for the same amount of time. 30 μl of the supernatant were then removed from each well and added to 10 μl of NAG substrate solution (p-nitrophenyl-N-acetyl-β-D-glucosaminide) and allowed to incubate for 1 hour at 37° C. Carbonate buffer (100 μl) was then added to each well and the absorbance of each well was immediately measured at 405 nm using a plate reader. Percent degranulation (%) was calculated as follows: ((Treatment release−buffer release)/(total release−buffer release))*100. Samples were run in quadruplicate and each compound was assayed in at least two independent experiments. Data were analyzed using GraphPad Prism 9.0.

MRGPRX4 [6] = target: MRGPRX4 (Homo sapiens, UniProt Q96LA9, L83S); assay: Mutagenesis of MRGPRX4, agonist-stimulated Gq activation; format: cell-based
Experimental: as §1

MRGPRX4 [7] = target: T2, MRGPRX4; settings: previously identified (ref. 17); cited from earlier work
MRGPRX2 [8] = target: MRGPRX2 (Homo sapiens, UniProt Q96LB1, W243A); assay: BRET2 Gq activation, MRGPRX2 pocket mutants, HEK293T cells; format: cell-based
Experimental: as §1

MRGPRX2 [9] = target: MRGPRX2 (Homo sapiens, UniProt Q96LB1, F170A); assay: as above; format: cell-based
Experimental: as §1

[10] = antagonist activity at MRGPRX2, EC80 (R)-ZINC-3573 (3 μM), read-out: Ki value

T2 sequence (Q96LA9 whole entry): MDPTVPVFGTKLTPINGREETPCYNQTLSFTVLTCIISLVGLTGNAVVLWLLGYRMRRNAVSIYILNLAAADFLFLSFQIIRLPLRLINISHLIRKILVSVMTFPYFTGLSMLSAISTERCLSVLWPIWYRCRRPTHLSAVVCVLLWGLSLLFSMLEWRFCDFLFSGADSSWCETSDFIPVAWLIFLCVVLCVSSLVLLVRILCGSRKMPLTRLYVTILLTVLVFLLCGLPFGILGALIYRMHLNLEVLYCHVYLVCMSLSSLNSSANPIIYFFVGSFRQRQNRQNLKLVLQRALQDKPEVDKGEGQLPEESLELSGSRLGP
T1 sequence (Q96LB1 whole entry): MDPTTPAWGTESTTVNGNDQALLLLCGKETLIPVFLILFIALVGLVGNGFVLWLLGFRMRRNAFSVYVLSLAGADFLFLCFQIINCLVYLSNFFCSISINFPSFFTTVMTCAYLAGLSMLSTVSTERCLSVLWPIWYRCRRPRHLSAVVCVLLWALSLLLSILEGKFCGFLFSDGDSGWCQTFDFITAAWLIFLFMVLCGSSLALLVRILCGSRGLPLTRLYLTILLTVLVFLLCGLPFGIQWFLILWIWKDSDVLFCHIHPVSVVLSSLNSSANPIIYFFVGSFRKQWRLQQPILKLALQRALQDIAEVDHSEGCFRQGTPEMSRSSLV
Sequence of NK1R (P25103 whole entry, species assumed): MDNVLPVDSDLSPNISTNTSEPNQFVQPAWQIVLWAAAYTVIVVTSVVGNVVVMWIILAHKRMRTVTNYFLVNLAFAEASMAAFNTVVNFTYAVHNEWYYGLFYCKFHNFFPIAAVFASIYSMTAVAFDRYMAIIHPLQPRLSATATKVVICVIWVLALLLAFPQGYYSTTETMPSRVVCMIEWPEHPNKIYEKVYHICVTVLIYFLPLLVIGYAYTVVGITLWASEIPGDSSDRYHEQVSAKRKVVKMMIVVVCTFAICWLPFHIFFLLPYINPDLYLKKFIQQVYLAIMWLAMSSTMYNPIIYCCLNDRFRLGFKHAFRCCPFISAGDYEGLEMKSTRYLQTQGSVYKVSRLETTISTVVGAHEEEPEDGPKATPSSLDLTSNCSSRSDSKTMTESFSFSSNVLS

Row | Molecule | off-target activity [2] | pKi (calc.) (MRGPRX2 [3]; Table 1) | Ki (MRGPRX2 [3]; Table 1, read-out: Ki) [µM] | Ki (MRGPRX2 [3]; [10]) [µM] | antagonist activity towards NK1R (NK1R) | antagonist activity towards MRGPRX4 (MRGPRX4 [5]) | other results
1 | CN(C)[C@@H]1CCN(c2cc(-c3ccccc3)nc3ccnn23)C1 [(R)-ZINC-3573] |  |  |  |  |  |  | effect of substitution of D184(5.38) and E164(4.60) on efficacy (MRGPRX2 [1]): impaired the efficacy
2 | O=c1c2ccccc2[nH]c(=S)n1Cc1nccs1 [Compound 9] | no significant activity | 7.5 | 0.032 | 0.043 | no antagonist activity | no antagonist activity | inhibition of substance P stimulated MRGPRX2 activation (MRGPRX2 [3]; listed as C9): inhibit substance P stimulated MRGPRX2 activation; also recorded: could inhibit MRGPRX2 activation; antagonist activity for MRGPRX2 (MRGPRX2 [3]; listed as C9): improved antagonist activity; also recorded: most potent and selective antagonist; inverse agonist activity, inhibition of basal recruitment of Gq by MRGPRX2 (MRGPRX2 [4]; listed as C9): inhibit the basal recruitment of Gq by MRGPRX2; also recorded: inverse agonists; inhibition of (R)-ZINC-3573-stimulated LAD2 human mast cell degranulation (LAD2 human mast cells): inhibit MRGPRX2 mediated LAD2 human mast activation; also recorded: inhibit (R)-ZINC-3573-stimulated LAD2 human mast cell degranulation in a concentration-dependent manner
3 | O=c1c2ccccc2[nH]c(=S)n1Cc1ccco1 [Compound C9-6] | no significant activity | 7.42 ± 0.06 | 0.038 | 0.058 | no antagonist activity | no antagonist activity | inhibition of substance P stimulated MRGPRX2 activation (MRGPRX2 [3]): inhibit substance P stimulated MRGPRX2 activation; also recorded: could inhibit MRGPRX2 activation; antagonist activity for MRGPRX2 (MRGPRX2 [3]): improved antagonist activity; also recorded: most potent and selective antagonist; inverse agonist activity, inhibition of basal recruitment of Gq by MRGPRX2 (MRGPRX2 [4]): inhibit the basal recruitment of Gq by MRGPRX2; also recorded: inverse agonists
4 | CC(C)[C@H]1CC[C@H](C(=O)N[C@H](Cc2ccccc2)C(=O)O)CC1 [nateglinide, reference compound] |  |  |  |  |  |  | effect of L83S mutation on potency (MRGPRX4 [6]): greatly attenuated the potency; agonist potency at MRGPRX4 (MRGPRX4 [7]): low micromolar agonist
5 | cortistatin-14 |  |  |  |  |  |  | effect of W243(6.55)A substitution on activity (MRGPRX2 [8]): completely reduced the activity; reduction of potency by F170(ECL2)A mutation (MRGPRX2 [9]): 7 fold
